One series has as its target T1, S1P5 (Homo sapiens, UniProt Q9H228).
T1 construct: Tango fusion partner (protease site + GAL4-VP16 transcription factor); expressed in transfected cells; host or cells: Tango S1P5-bla U-2 OS cells
As to the kind of experiment: S1P5 antagonist test, Tango S1P5-bla U-2 OS cells. It is filed as cell-based. The following applies: S1P5 TANGO U-2 OS cell line. How it is done:
(§1) Since AD2900 is a sphingolipid analogue with properties that resemble those of S1P, we intended to examine its ability to interact with the S1P receptors. To delineate whether AD2900 can function as an agonistic or antagonistic compound to any of the S1P receptors, we used a high-throughput screening cell-based assay, employing cell lines stably transfected with human S1P receptors 1, 2, 3, 4, or 5 [37]. In this experiment, a compound with an IC50 or EC50 value ≤10 μM for a certain S1P receptor is considered active as an antagonist or an agonist, respectively. The results illustrate that AD2900 acts as an antagonist to all S1P receptors (Table 1, Supplementary Figure 3). […] No agonist activation was evident.
(§2) The S1P1 agonist test and S1P2, S1P3, S1P4, and S1P5 agonist and antagonist tests were conducted as previously described using S1P1 CRE-bla CHO cells, S1P2 CRE-bla CHO cells, S1P3 NFAT-bla CHO cells, Tango™ S1P4 (EDG6)-bla U-2 OS cells, and Tango™ S1P5 ([…])-bla U-2 OS cells. The S1P1 antagonist assay was carried out according to the manufacturer’s instructions using a Tango™ S1P1 (EDG1)-bla U-2 OS Cell-Based Assay (Invitrogen, NY, USA).

A further series addresses T2, S1P2 (Homo sapiens, UniProt O95136).
T2 construct: expressed in transfected cells; host or cells: S1P2 CRE-bla CHO cells
As to the kind of experiment: S1P2 agonist test, S1P2 CRE-bla CHO cells. It is filed as cell-based. The following applies: S1P2 CRE-BLA CHO cell line. As to the method:
as §1, §2

Details of series [1]: method as in unpublished data. The following applies: previous studies; ref unpublished data; cited from earlier work.
The subject of another series is Jurkat cell line. As to the kind of experiment: XTT viability assay, Jurkat. The class given is cell-based, human. The following applies: 1-day treatment. As to the method: Figure 1 AD2900 inhibits human lymphocyte proliferation in allogeneic activation (A, B) The levels of proliferative response of human peripheral blood lymphocytes (PBMCs) after 1-day pretreatment with different concentrations of AD2900, AD2750, YZ138, YZ158, and YZ297 (A) or AD2900, FTY720, and SEW2871 (B) were tested by human allogeneic mixed lymphocyte reaction (MLR) assay, followed by a [3H] thymidine incorporation analysis. (C) Apoptosis of AD2900-treated activated PBMCs was tested by AnnexinV-propidium iodide (PI) FACS analysis following 1-day AD2900 pretreatment and MLR. All the samples were compared to the untreated PBMC control. (D) IFN-γ secretion from activated PBMCs was tested by ELISA following a 1-day AD2900 pretreatment in MLR. On the 5th day of hMLR, supernatants were collected and assayed for the level of IFN-γ. (E) Jurkat cell viability after a 1-day treatment with different concentrations of AD2900, FTY720, and SEW2871 was tested by XTT viability assay. (F) H9, CEM/C1, and Molt4 cell viability after a 1-day treatment with different concentrations of AD2900 was tested by XTT viability assay. Graphs summarize the results of at least three independent experiments. Results of Student’s t-test: *(P < 0.05, two-tailed test), ** (P < 0.01, two-tailed test), *** (P < 0.001, two-tailed test), **** (P < 0.0001, two-tailed test). […]
A general note: Tetrazolium dyes change colour on reduction, which living cells bring about.

Details of series [2]: method as in unpublished data. The following applies: previous studies; ref unpublished data; cited from earlier work. The source holds these as a separate data set.
For another series, the target named is T3, S1P3 (Homo sapiens, UniProt Q99500).
T3 construct: expressed in transfected cells; host or cells: S1P3 NFAT-bla CHO cells
T3 sequence (Q99500 whole entry): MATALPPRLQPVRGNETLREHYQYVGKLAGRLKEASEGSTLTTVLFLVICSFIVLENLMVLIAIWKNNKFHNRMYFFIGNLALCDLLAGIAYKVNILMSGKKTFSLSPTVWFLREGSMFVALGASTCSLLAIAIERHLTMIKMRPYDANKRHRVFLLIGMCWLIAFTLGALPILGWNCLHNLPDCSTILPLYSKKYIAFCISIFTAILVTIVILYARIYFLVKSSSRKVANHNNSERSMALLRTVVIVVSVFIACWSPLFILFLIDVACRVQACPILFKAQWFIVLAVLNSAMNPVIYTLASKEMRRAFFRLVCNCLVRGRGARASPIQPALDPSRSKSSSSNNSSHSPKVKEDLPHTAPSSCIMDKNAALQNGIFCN
As to the kind of experiment: S1P3 antagonist test, S1P3 NFAT-bla CHO cells. The following applies: S1P3 NFAT-BLA CHO cell line. The class given is cell-based. How it is done:
as §1, §2

The term IC50 denotes the point on the concentration scale where inhibition reaches its midpoint. Lower therefore signals greater potency. In general, EC50 refers to the concentration at which the effect is half-maximal. Higher therefore signals a less potent agent.

T1 sequence (Q9H228 whole entry, the tested form may be a part): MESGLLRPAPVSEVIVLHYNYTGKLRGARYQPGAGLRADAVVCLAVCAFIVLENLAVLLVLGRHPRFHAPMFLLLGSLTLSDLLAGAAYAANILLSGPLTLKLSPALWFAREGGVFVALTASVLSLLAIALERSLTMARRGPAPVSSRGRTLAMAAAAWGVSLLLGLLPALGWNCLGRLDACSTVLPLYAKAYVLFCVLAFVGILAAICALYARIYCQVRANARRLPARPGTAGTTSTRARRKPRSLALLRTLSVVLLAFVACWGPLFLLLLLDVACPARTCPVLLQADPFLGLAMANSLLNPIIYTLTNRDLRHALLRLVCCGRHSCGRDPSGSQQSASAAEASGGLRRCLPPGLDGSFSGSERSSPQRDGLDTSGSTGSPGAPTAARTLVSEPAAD
T2 sequence (O95136 whole entry): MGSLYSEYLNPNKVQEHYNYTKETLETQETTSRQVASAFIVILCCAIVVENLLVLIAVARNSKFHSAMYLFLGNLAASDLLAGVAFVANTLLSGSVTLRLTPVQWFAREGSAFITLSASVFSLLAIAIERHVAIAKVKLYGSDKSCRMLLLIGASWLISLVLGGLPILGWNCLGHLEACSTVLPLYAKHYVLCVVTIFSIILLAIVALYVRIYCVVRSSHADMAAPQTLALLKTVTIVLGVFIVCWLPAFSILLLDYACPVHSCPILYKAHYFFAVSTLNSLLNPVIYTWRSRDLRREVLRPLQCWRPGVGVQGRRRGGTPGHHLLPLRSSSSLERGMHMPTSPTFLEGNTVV

On to `CCCCCCCCCCCCCCCCNC(CO)(CO)CO` [AD2900], for which the figures for the IC50 against S1P5 and against S1P3 were 0.405 µM and 6.2 µM, respectively. The compound also registered a half-maximal effective concentration (EC50) on S1P2 of over 50 µM. Also, in series [1], the “stable at room temperature” value is listed as “at least 2 years”. Also, the “concentrations leading to reduced viability of Jurkat cells” value with Jurkat cell line is given as “higher than 10 μM”. Moreover, in the series on Jurkat cell line, the “effect on Jurkat viability compared to FTY720 and SEW2817” value is “lower than that with FTY720 treatment and higher than that with SEW2817”. The “lethal dose 50% (LD50)” value in series [2] is recorded as “above 100 mg/kg”.

Values taken from paper PMC5581131, “The novel sphingosine-1-phosphate receptors antagonist AD2900 affects lymphocyte activation and inhibits T-cell entry into the lymph nodes” (Oncotarget, 2017).
